Series [1] relates to Mycosphaerella graminicola (Septoria tritici). Nature of the series: Mycosphaerella graminicola (Septoria tritici) on wheat / preventative. The format is in vivo. Particulars: Zymoseptoria tritici, wheat plants cv. Riband, preventative spray, 16 to 19 days after application, read-out: control of Mycosphaerella graminicola compared to untreated control.
The subject of series [2] is Botryotinia fuckeliana (Botrytis cinerea). Nature of the series: Botryotinia fuckeliana (Botrytis cinerea) / liquid culture (Gray mould). The format is cell-based. Particulars: liquid culture Vogels broth, 3-4 days after application, read-out: control of Botryotinia fuckeliana (inhibition of growth, photometric).
The test system of series [3] is Glomerella lagenarium (Colletotrichum lagenarium). The experiment in a line: Glomerella lagenarium (Colletotrichum lagenarium) / liquid culture (Anthracnose). The class given is cell-based. Particulars: Colletotrichum orbiculare, liquid culture PDB, 3-4 days after application, read-out: control of Glomerella lagenarium (inhibition of growth, photometric).
Series [4] has as its system Mycosphaerella graminicola (Septoria tritici). The experiment in a line: Comparative: Mycosphaerella graminicola (Septoria tritici) on wheat / preventative, emulsifiable concentrate. The format is in vivo. Particulars: rate of application 60 ppm, Mycosphaerella graminicola on wheat cv. Riband, 16 to 19 days after application.
For a further series, the system named is Botrytis cinerea. The experiment in a line: Comparative: Botrytis cinerea / tomato / preventative. The format is in vivo. Particulars: rate of application 200 ppm, Botrytis cinerea on tomato, emulsifiable concentrate, 5-6 days after application.
In the next series the test system is Venturia inaequalis. The experiment in a line: Comparative: Venturia inaequalis / apple / preventative (Scab on apple). The settings on record: rate of application 200 ppm, Venturia inaequalis on apple seedlings, emulsifiable concentrate, 11-13 days after application. The class given is in vivo.
In series [5] the test system is Colletotrichum lagenarium. Nature of the series: Comparative: Colletotrichum lagenarium / cucumber / preventative (Anthracnose). The class given is in vivo. Particulars: rate of application 200 ppm, Colletotrichum lagenarium on cucumber cv. Wisconsin, emulsifiable concentrate, 6-8 days after application.
A further series deals with Fusarium culmorum. The experiment in a line: microbe, parasite or virus in culture. The settings on record: read-out: control of Fusarium culmorum (inhibition of growth, photometric). The class given is cell-based.
The subject of series [6] is Monographella nivalis (Microdochium nivale). Nature of the series: Monographella nivalis (Microdochium nivale) / liquid culture (foot rot cereals). The class given is cell-based. The settings on record: liquid culture PDB, 4 to 5 days after application, read-out: control of Monographella nivalis (inhibition of growth, photometric).

Consider three molecules from patent US20240208962A1, “MICROBIOCIDAL QUINOLINE/QUINOXALINE BENZOTHIAZINE DERIVATIVES” (SYNGENTA CROP PROTECTION AG, priority 2021, published 2024).

`Cc1cccc2c1SC(C)(C)N=C2c1cnc2c(F)c(F)ccc2c1` [Compound E.01, 4-(7,8-difluoro-3-quinolyl)-2,2,8-trimethyl-1,3-benzothiazine] returned a melting point of 137 to 139 °C. Besides, the pest or weed control at 60 ppm in [1] was at least 80%. Besides, the inhibition at 20 ppm in [2] was at least 80%. Besides, in series [3], the inhibition at 20 ppm is at least 80%. In addition, the “Efficacy (% control)” value in [4] amounted to 72 % control. For the same molecule, the “Efficacy (% control)” value in the series with Botrytis cinerea is 97 % control. In the series on Venturia inaequalis, the “Efficacy (% control)” value amounted to 97 % control. In series [5], the “Efficacy (% control)” value is listed as 97 % control.

In the case of `CC1(C)N=C(c2cnc3c(F)c(F)ccc3c2)c2cccc(Cl)c2S1` [Compound E.02, 8-chloro-4-(7,8-difluoro-3-quinolyl)-2,2-dimethyl-1,3-benzothiazine], the melting point was in the range of 134 to 136 °C. Also, the pest or weed control at 60 ppm in [1] was at least 80%. Also, in [2], the inhibition at 20 ppm is at least 80%. In addition, the inhibition at 20 ppm in series [3] is at least 80%. Further, the “Efficacy (% control)” value in series [4] is recorded as 99 % control. In the series on Botrytis cinerea, the “Efficacy (% control)” value was 95 % control. The “Efficacy (% control)” value in the series with Venturia inaequalis turned out to be 97 % control. In addition, the “Efficacy (% control)” value in [5] was 97 % control.

Take `CC1(C)N=C(c2cnc3c(F)cccc3c2)c2cccc(Cl)c2S1` [Compound E.12, 8-chloro-4-(8-fluoro-3-quinolyl)-2,2-dimethyl-1,3-benzothiazine]: the melting point lay in the range of 158 to 160 °C. For the same molecule, the pest or weed control at 60 ppm in [1] was at least 80%. The inhibition at 20 ppm in the series with Fusarium culmorum was at least 80%. Besides, the inhibition at 20 ppm in series [6] is at least 80%. In series [2], the inhibition at 20 ppm was at least 80%. The inhibition at 20 ppm in series [3] is at least 80%. The “Efficacy (% control)” value in [4] is 92 % control. For the same molecule, the “Efficacy (% control)” value in the series with Botrytis cinerea was determined as 95 % control. In addition, the “Efficacy (% control)” value with Venturia inaequalis came to 100 % control. Besides, in series [5], the “Efficacy (% control)” value is 100 % control.

The inhibition is the percentage by which the read-out fell short of the control. As a reminder, the melting point is the temperature of the solid-liquid transition.
